Measured values taken from publication PMC10017709, “Structural basis of selective cannabinoid CB2 receptor activation” (Nature Communications, 2023).
Where “and” joins values, the source holds several entries; their conditions need not be identical. Equal entries are not always repeated.

Tests used:
CB1R-H270^ECL2L = CB1R-H270^ECL2L (Homo sapiens, UniProt P21554, H270L); experiment: [35S]GTPγS assay, CB1R H270L mutant; type: biochemical
CB2R-L182^ECL2I = CB2R-L182^ECL2I (Homo sapiens, UniProt P34972, L182I); experiment: [35S]GTPγS assay, CB2R L182I mutant; type: biochemical; details: L182I mutant
CB1R D266ECL2E [1] = target: T1, CB1R D266ECL2E (Homo sapiens, UniProt P21554, D266E); experiment: [3H]CP55,940 displacement assay, CB1R D266E mutant; type: binding
T1 construct: The WT CB1R and CB2R genes were subcloned into vector pcDNA3.1; HA signal peptide (N); expressed in transfected cells; host or cells: HEK293T (transient, membrane homogenates)

CB1R-L359^6.51V = CB1R-L359^6.51V (Homo sapiens, UniProt P21554, L359V); experiment: [35S]GTPγS assay, CB1R L359V mutant; type: biochemical
CB2R-F117^3.36A = CB2R-F117^3.36A (Homo sapiens, UniProt P34972, F117A); experiment: [35S]GTPγS assay, CB2R F117A mutant; type: biochemical
CB1R D266ECL2E [2] = target: T1, CB1R D266ECL2E; experiment: [35S]GTPγS assay, CB1R D266E mutant; type: biochemical
CB2R-I110^3.29L = CB2R-I110^3.29L (Homo sapiens, UniProt P34972, I110L); experiment: [35S]GTPγS assay, CB2R I110L mutant; type: biochemical; details: for [35S]GTPγS binding: I1103.29L, individual replicates
hCB2R = target: T2, hCB2R (Homo sapiens, UniProt P34972); experiment: [3H]RO6957022 displacement assay; type: binding; details: for percentage specific [3H]RO6957022 binding (displacement): individual replicates
T2 construct: host or cells: CHO-K1 (CHOK1_hCB2bgal, PathHunter), membranes

CB2R-H95^2.65A = CB2R-H95^2.65A (Homo sapiens, UniProt P34972, H95A); experiment: [35S]GTPγS assay, CB2R H95A mutant; type: biochemical; details: H95A mutant
hCB1R WT = hCB1R WT (Homo sapiens, UniProt P21554); experiment: [3H]CP55,940 displacement assay, CB1R WT; type: binding
CB2R-Quadruple^TM1,7 = CB2R-Quadruple^TM1,7 (Homo sapiens, UniProt P34972, C40S/K279T/K33Q/V36I); experiment: [35S]GTPγS assay, CB2R quadruple mutant; type: biochemical; details: for [35S]GTPγS binding: QuadrupleTM1,7, individual replicates
CB1R QuadrupleTM1,7 = experiment: [35S]GTPγS assay, CB1R quadruple mutant; type: biochemical, human; details: CB1R Quadruple TM1,7; 10 µM agonist

Chain of CB1R-H270^ECL2L (P21554 whole entry H270L): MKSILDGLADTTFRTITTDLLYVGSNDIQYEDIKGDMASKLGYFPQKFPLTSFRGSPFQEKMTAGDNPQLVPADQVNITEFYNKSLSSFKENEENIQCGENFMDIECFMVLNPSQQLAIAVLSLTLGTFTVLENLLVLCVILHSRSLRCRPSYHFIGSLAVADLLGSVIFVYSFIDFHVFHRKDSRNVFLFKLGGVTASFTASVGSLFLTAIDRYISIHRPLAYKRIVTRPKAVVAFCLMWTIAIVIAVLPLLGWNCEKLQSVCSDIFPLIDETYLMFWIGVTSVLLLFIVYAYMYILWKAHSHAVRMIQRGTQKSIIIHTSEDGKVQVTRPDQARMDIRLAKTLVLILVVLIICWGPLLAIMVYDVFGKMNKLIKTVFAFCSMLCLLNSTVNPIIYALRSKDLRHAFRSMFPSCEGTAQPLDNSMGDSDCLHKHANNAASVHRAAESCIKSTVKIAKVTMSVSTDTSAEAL
Chain of CB2R-I110^3.29L (P34972 whole entry I110L): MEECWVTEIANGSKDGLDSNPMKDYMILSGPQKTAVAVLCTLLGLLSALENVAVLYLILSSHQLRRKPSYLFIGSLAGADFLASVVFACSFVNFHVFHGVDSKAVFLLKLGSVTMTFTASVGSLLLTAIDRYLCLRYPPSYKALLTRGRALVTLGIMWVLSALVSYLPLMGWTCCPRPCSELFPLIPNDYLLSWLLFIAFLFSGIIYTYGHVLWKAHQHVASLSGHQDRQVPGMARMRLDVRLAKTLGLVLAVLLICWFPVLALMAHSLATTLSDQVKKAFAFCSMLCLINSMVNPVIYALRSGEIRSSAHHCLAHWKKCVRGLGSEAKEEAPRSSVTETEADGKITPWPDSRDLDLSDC
Chain of CB2R-H95^2.65A (P34972 whole entry H95A): as the sequence (P34972 whole entry I110L) above, with H95A, L110I counted along it
T1 sequence (P21554 whole entry D266E): as the sequence (P21554 whole entry H270L) above, with D266E, L270H counted along it
Chain of hCB1R WT (P21554 whole entry): as the sequence (P21554 whole entry H270L) above, with L270H counted along it
Chain of CB1R-L359^6.51V (P21554 whole entry L359V): as the sequence (P21554 whole entry H270L) above, with L270H, L359V counted along it
Chain of CB2R-Quadruple^TM1,7 (P34972 whole entry K33Q/V36I/C40S/K279T): as the sequence (P34972 whole entry I110L) above, with K33Q, V36I, C40S, L110I, K279T counted along it
T2 sequence (P34972 whole entry): as the sequence (P34972 whole entry I110L) above, with L110I counted along it
Chain of CB2R-F117^3.36A (P34972 whole entry F117A): as the sequence (P34972 whole entry I110L) above, with L110I, F117A counted along it
Chain of CB2R-L182^ECL2I (P34972 whole entry L182I): as the sequence (P34972 whole entry I110L) above, with L110I, L182I counted along it

CC(C)CN1C(=O)CN(Cc2ccc(-c3ccc(F)c(CNC4CCOCC4)n3)cc2)C1=O [LEI-102, 1-(4-(5-fluoro-6-(((tetrahydro-2H-pyran-4-yl)amino)methyl)pyridin-2-yl)benzyl)-3-isobutylimidazolidine-2,4-dione]
G protein activation, fold over its basal (CB1R-H270^ECL2L; CB1R H270ECL2L, individual replicates): 1.101 fold over its basal and 1.221 fold over its basal and 1.256 fold over its basal | Agonist-mediated activation (CB1R-H270^ECL2L; CB1R H270L, 10 µM agonist): 1.2 ± 0.0 fold over its basal | EC50 (CB2R-L182^ECL2I; <5 when curve fit not finished): 0.0398 µM | Emax (%) (CB2R-L182^ECL2I; at 10 µM compared to WT): 11 ± 8% | Displacement (%) of [3H]CP55,940 (CB1R D266ECL2E [1]; CB1R D266E, 10 µM compound): 38 ± 10% | percentage specific [3H]CP55,940 binding (CB1R D266ECL2E [1]; CB1R D266ECL2E, 10 µM ligand, replicates 1-3): 65.03 percentage and 44.89 percentage and 77.53 percentage | Agonist-mediated activation (CB1R-L359^6.51V; CB1R L359V, 10 µM agonist): 1.1 ± 0.1 fold over its basal | G protein activation, fold over its basal (CB1R-L359^6.51V; CB1R L3596.51V, individual replicates): 1.125 fold over its basal and 1.294 fold over its basal and 0.998 fold over its basal | Emax (%) (CB2R-F117^3.36A; F117A mutant, at 10 µM compared to WT): 11 ± 11% | [35S]GTPγS binding (CB2R-F117^3.36A; F1173.36A, log [ligand] (M) -5, individual replicates): -10.74 percentage of WT and 22.02 percentage of WT and 22.63 percentage of WT | Agonist-mediated activation (CB1R D266ECL2E [2]; CB1R D266E, 10 µM agonist): 1.1 ± 0.1 fold over its basal | G protein activation, fold over its basal (CB1R D266ECL2E [2]; CB1R D266ECL2E, individual replicates): 1.059 fold over its basal and 1.264 fold over its basal and 1.015 fold over its basal | EC50 (CB2R-I110^3.29L; I110L mutant, HEK293T membranes): 0.0158 µM | Emax (%) (CB2R-I110^3.29L; I110L mutant, at 10 µM compared to WT): 91 ± 3% | [35S]GTPγS binding (CB2R-I110^3.29L; log [ligand] (M) -5): 91.04 percentage of WT and 85.60 percentage of WT and 97.60 percentage of WT | [35S]GTPγS binding (CB2R-I110^3.29L; log [ligand] (M) -6): 71.11 percentage of WT and 90.00 percentage of WT and 68.00 percentage of WT | [35S]GTPγS binding (CB2R-I110^3.29L; log [ligand] (M) -7): 49.89 percentage of WT and 105.60 percentage of WT and 64.50 percentage of WT | [35S]GTPγS binding (CB2R-I110^3.29L; log [ligand] (M) -8): 38.52 percentage of WT and 44.70 percentage of WT and 17.20 percentage of WT | [35S]GTPγS binding (CB2R-I110^3.29L; log [ligand] (M) -9): 9.93 percentage of WT and -16.00 percentage of WT and -7.20 percentage of WT | [35S]GTPγS binding (CB2R-I110^3.29L; log [ligand] (M) -10): -2.60 percentage of WT and -2.20 percentage of WT and -32.20 percentage of WT | Ki (hCB2R; CHOK1_hCB2bgal membranes, 10 °C): 0.0097 µM | percentage specific [3H]RO6957022 binding (displacement) (hCB2R; log [agonist] (M) -5): -32.33% and 4.32% and 0.17% | percentage specific [3H]RO6957022 binding (displacement) (hCB2R; log [agonist] (M) -6): -14.04% and 1.26% and 2.78% | percentage specific [3H]RO6957022 binding (displacement) (hCB2R; log [agonist] (M) -7): 18.14% and 30.43% and 22.20% | percentage specific [3H]RO6957022 binding (displacement) (hCB2R; log [agonist] (M) -8): 86.67% and 64.68% and 56.33% | percentage specific [3H]RO6957022 binding (displacement) (hCB2R; log [agonist] (M) -9): 136.04% and 85.34% and 92.04% | percentage specific [3H]RO6957022 binding (displacement) (hCB2R; log [agonist] (M) -10): 150.08% and 77.03% and 85.93% | EC50 (CB2R-H95^2.65A; <5 when curve fit not finished): > 10 µM | pEC50 (CB2R-H95^2.65A; <5 when curve fit not finished): significantly reduced | Emax (%) (CB2R-H95^2.65A; at 10 µM compared to WT): 64 ± 7% | percentage specific [3H]CP55,940 binding (hCB1R WT; CB1R - WT, 10 µM ligand, replicates 1-3): 72.08 percentage and 95.14 percentage and 82.84 percentage | Displacement (%) of [3H]CP55,940 (hCB1R WT; CB1R WT, 10 µM compound): 17 ± 7% | binding to CB1R (hCB1R WT; [3H]CP55,940 displacement): did not bind | selectivity (CB2R over CB1R) (hCB1R WT; binding, CB2R vs CB1R): at least 1000 fold | EC50 (CB2R-Quadruple^TM1,7; Quadruple TM1,7 mutant, <5 when curve fit not finished): 0.631 µM | Emax (%) (CB2R-Quadruple^TM1,7; Quadruple TM1,7 mutant, at 10 µM compared to WT): 27 ± 5% | [35S]GTPγS binding (CB2R-Quadruple^TM1,7; log [ligand] (M) -5): 19.02 percentage of WT and 26.25 percentage of WT and 35.32 percentage of WT | [35S]GTPγS binding (CB2R-Quadruple^TM1,7; log [ligand] (M) -6): 18.24 percentage of WT and 27.33 percentage of WT and 15.57 percentage of WT | [35S]GTPγS binding (CB2R-Quadruple^TM1,7; log [ligand] (M) -7): -20.33 percentage of WT and 5.34 percentage of WT | [35S]GTPγS binding (CB2R-Quadruple^TM1,7; log [ligand] (M) -8): -17.90 percentage of WT and -15.60 percentage of WT and -7.82 percentage of WT | [35S]GTPγS binding (CB2R-Quadruple^TM1,7; log [ligand] (M) -9): -5.85 percentage of WT and 6.13 percentage of WT and -3.78 percentage of WT | Agonist-mediated activation (CB1R QuadrupleTM1,7): 1.2 ± 0.1 fold over its basal
